# Experimental data as given in patent US20260078130A1, “NAMPT MODULATORS, PREPARATIONS, AND USES THEREOF” (SIRONAX LTD., priority 2022, published 2026).
# Like-named read-outs stand apart in the source and are kept apart here.
# Molecular target: T1, human enzyme NAMPT (full length) (Homo sapiens, UniProt P43490)
# T1 construct: human enzyme NAMPT (full length)
# Experiment: NMN fluorescence biochemical assay (stimulation of NMN synthesis by NAMPT)
# Settings: for EC50: concentration giving half-maximal activation, read-out: Enzymatic EC50; for Enzymatic Emax: fold change of maximal activation compared to DMSO
# Outline: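 Full-length human NAMPT (100 nM) was preincubated 15 min at 37 °C with compound in 50 mM Tris-HCl pH 7.5, 10 mM MgCl2, 2 mM DTT, then reacted 1 h at 37 °C with 50 μM NAM, 100 μM PRPP, 4 mM ATP (stated solution concentrations). NMN was derivatised with acetophenone/KOH then formic acid and read at Ex/Em 382/445 nm; EC50 and Emax (fold over DMSO) reported.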
# [1] = NMN synthesis by purified human NAMPT (100 nM)
# [2] = NMN fluorescence assay, purified human NAMPT 100 nM
# T1 sequence (P43490 whole entry): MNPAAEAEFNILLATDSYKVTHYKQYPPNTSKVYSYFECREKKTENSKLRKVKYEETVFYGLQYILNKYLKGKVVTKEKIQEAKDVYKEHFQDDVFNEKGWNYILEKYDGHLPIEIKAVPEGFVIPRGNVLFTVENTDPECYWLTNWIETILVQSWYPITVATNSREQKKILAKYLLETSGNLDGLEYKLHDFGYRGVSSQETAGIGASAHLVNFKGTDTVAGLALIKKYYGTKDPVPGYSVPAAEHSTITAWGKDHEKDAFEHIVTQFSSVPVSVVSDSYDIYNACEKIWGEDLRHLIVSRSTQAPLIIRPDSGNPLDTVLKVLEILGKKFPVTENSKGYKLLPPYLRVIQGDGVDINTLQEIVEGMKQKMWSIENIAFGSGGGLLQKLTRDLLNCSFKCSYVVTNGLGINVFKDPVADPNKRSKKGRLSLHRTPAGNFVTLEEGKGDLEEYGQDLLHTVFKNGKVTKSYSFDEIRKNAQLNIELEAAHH
EC50 [1],Enzymatic Emax,EC50 [2],Compound
0.5 to 5 µM,B (3≥B>2),,"COc1nc2cc(CN3C(=O)c4ccccc4C3Cc3ncccc3Br)ccc2[nH]1 (stereo not drawn) [Compound 254, 3-((3-bromopyridin-2-yl)methyl)-2-((2-methoxy-1H-benzo[d]imidazol-5-yl)methyl) isoindolin-1-one]"
0.5 to 5 µM,A (A>3),,"O=C1c2ccccc2C(Cc2ccc(Br)cn2)N1Cc1ccc2[nH]c(=O)oc2c1 (stereo not drawn) [Compound 262, 6-((1-((5-bromopyridin-2-yl)methyl)-3-oxoisoindolin-2-yl)methyl)benzo[d]oxazol-2(3H)-one]"
,B (3≥B>2),≥ 5 µM,"O=C1c2ccccc2C(Cc2ncccc2Br)N1C/C=C/c1n[nH]c(=O)o1 (stereo not drawn) [Compound 458, (E)-5-(3-(1-((3-bromopyridin-2-yl)methyl)-3-oxoisoindolin-2-yl)prop-1-en-1-yl)-1,3,4-oxadiazol-2(3H)-one]"
≥ 5 µM,B (3≥B>2),,"COC1CN(Cc2ccc3c(c2)[C@H](C)N(Cc2ccc4[nH]c(=O)oc4c2)C3=O)C1 (single isomer, unassigned) [Compound 185]"
≥ 5 µM,C (2≥C),,"O=C1c2ccccc2C(Cc2ncccc2Br)N1Cc1ccn2c(=O)[nH]nc2c1 (stereo not drawn) [Compound 281, 7-((1-((3-bromopyridin-2-yl)methyl)-3-oxoisoindolin-2-yl)methyl)-[1,2,4]triazolo[4,3-a]pyridin-3(2H)-one]"
0.5 to 5 µM,B (3≥B>2),,"N#Cc1cccc(CC2c3ccccc3C(=O)N2Cc2ccc3[nH]c(=O)oc3c2)n1 (stereo not drawn) [Compound 219, 6-((3-oxo-2-((2-oxo-2,3-dihydrobenzo[d]oxazol-6-yl)methyl)isoindolin-1-yl)methyl)picolinonitrile]"
≥ 5 µM,C (2≥C),,"N#Cc1cccc(F)c1C[C@@H]1c2ccccc2C(=O)N1Cc1ccc2[nH]c(=O)oc2c1 [Compound 171, (R)-3-fluoro-2-((3-oxo-2-((2-oxo-2,3-dihydrobenzo[d]oxazol-6-yl)methyl)isoindolin-1-yl)methyl)benzonitrile]"
,C (2≥C),0.5 to 5 µM,"N#Cc1nc2cc(CN3C(=O)c4ccccc4C3Cc3ncccc3Br)ccc2[nH]1 (stereo not drawn) [Compound 366, 5-((1-((3-bromopyridin-2-yl)methyl)-3-oxoisoindolin-2-yl)methyl)-1H-benzo[d]imidazole-2-carbonitrile]"
≥ 5 µM,B (3≥B>2),,"Cc1cccc2c1C(C)N(Cc1ccc3[nH]c(=O)oc3c1)C2=O (stereo not drawn) [Compound 246, 6-((3,4-dimethyl-1-oxoisoindolin-2-yl)methyl)benzo[d]oxazol-2(3H)-one]"
0.5 to 5 µM,A (A>3),,"O=C1c2ccccc2C(Cc2ccc3ncoc3c2)N1Cc1ccc2[nH]c(=O)oc2c1 (stereo not drawn) [Compound 216, 6-((1-(benzo[d]oxazol-6-ylmethyl)-3-oxoisoindolin-2-yl)methyl)benzo[d]oxazol-2(3H)-one]"
≥ 5 µM,C (2≥C),,"Cc1cccnc1C[C@@H]1c2ccccc2C(=O)N1Cc1ccc2[nH]c(=O)oc2c1 [Compound 177, (R)-6-((1-((3-methylpyridin-2-yl)methyl)-3-oxoisoindolin-2-yl)methyl)benzo[d]oxazol-2(3H)-one]"
0.5 to 5 µM,A (A>3),,"Cc1conc1CC1c2ccccc2C(=O)N1Cc1ccc2[nH]c(=O)oc2c1 (stereo not drawn) [Compound 248, 6-((1-((4-methylisoxazol-3-yl)methyl)-3-oxoisoindolin-2-yl)methyl)benzo[d]oxazol-2(3H)-one]"
,C (2≥C),≥ 5 µM,"O=C1CC2(CN1)CC(CN1C(=O)c3ccccc3C1Cc1ncccc1Br)C2 (stereo not drawn) [Compound 424, 3-((3-bromopyridin-2-yl)methyl)-2-((7-oxo-6-azaspiro[3.4]octan-2-yl)methyl) isoindolin-1-one]"
< 0.5 µM,B (3≥B>2),,"N#Cc1nccc(Cl)c1CC1c2cc(C3COC3)ccc2C(=O)N1Cc1ccc2[nH]c(=O)oc2c1 (stereo not drawn) [Compound 285, 4-chloro-3-((6-(oxetan-3-yl)-3-oxo-2-((2-oxo-2,3-dihydrobenzo[d]oxazol-6-yl)methyl)isoindolin-1-yl)methyl)picolinonitrile]"
,B (3≥B>2),0.5 to 5 µM,"Cc1cnn(C)c1CC1c2ccccc2C(=O)N1Cc1ccc2[nH]nnc2c1 (stereo not drawn) [Compound 365, 2-((1H-benzo[d][1,2,3]triazol-5-yl)methyl)-3-((1,4-dimethyl-1H-pyrazol-5-yl)methyl)isoindolin-1-one]"
,B (3≥B>2),< 0.5 µM,"Cc1cc(F)c2c(c1)C(Cc1c(Cl)cnn1C)N(CC1CC3(CNC(=O)O3)C1)C2=O (stereo not drawn) [Compound 506, 2-((1-((4-chloro-1-methyl-1H-pyrazol-5-yl)methyl)-4-fluoro-6-methyl-3-oxoisoindolin-2-yl)methyl)-5-oxa-7-azaspiro[3.4]octan-6-one]"
0.5 to 5 µM,B (3≥B>2),,"Nc1ccccc1CC1c2ccccc2C(=O)N1Cc1ccc2[nH]c(=O)oc2c1 (stereo not drawn) [Compound 208, 6-((1-(2-aminobenzyl)-3-oxoisoindolin-2-yl)methyl)benzo[d]oxazol-2(3H)-one]"
0.5 to 5 µM,B (3≥B>2),,"O=C1c2ccccc2C(Cc2ncccc2C2CC2)N1Cc1ccc2[nH]c(=O)oc2c1 (stereo not drawn) [Compound 184, 6-((1-((3-cyclopropylpyridin-2-yl)methyl)-3-oxoisoindolin-2-yl)methyl)benzo[d]oxazol-2(3H)-one]"
≥ 5 µM,A (A>3),,"Nn1c(=O)oc2cc(CN3C(=O)c4ccccc4C3Cc3ncccc3Br)ccc21 (stereo not drawn) [Compound 256, 3-Amino-6-((1-((3-bromopyridin-2-yl)methyl)-3-oxoisoindolin-2-yl)methyl)benzo[d]oxazol-2(3H)-one]"
≥ 5 µM,A (A>3),,"CC1c2cc(Cl)ccc2C(=O)N1Cc1ccc2[nH]c(=O)oc2c1 (stereo not drawn) [Compound 265, 6-((5-chloro-3-methyl-1-oxoisoindolin-2-yl)methyl)benzo[d]oxazol-2(3H)-one]"
≥ 5 µM,B (3≥B>2),,"O=c1[nH]n(Cc2ccc(O)cc2)c2ccccc12 [Compound 13, 1-(4-hydroxybenzyl)-1,2-dihydro-3H-indazol-3-one]"
,B (3≥B>2),0.5 to 5 µM,"Cc1[nH]nnc1/C=C/CN1C(=O)c2ccccc2C1Cc1ncccc1Br (stereo not drawn) [Compound 386, (E)-3-((3-bromopyridin-2-yl)methyl)-2-(3-(5-methyl-1H-1,2,3-triazol-4-yl)allyl)isoindolin-1-one]"
,A (A>3),0.5 to 5 µM,"Cc1nc2cc(CN3C(=O)c4ccccc4C3Cc3ncccc3Br)ccc2[nH]1 (stereo not drawn) [Compound 358, 3-((3-bromopyridin-2-yl)methyl)-2-((2-methyl-1H-benzo[d]imidazol-5-yl)methyl)isoindolin-1-one]"
,C (2≥C),≥ 5 µM,"Cn1c(CC2c3ccccc3C(=O)N2CC2CC3(CNC(=O)O3)C2)ccc(Cl)c1=O (stereo not drawn) [Compound 472, 2-((1-((5-chloro-1-methyl-6-oxo-1,6-dihydropyridin-2-yl)methyl)-3-oxoisoindolin-2-yl)methyl)-5-oxa-7-azaspiro[3.4]octan-6-one]"
,C (2≥C),≥ 5 µM,"Cn1c(CC2c3ccccc3C(=O)N2CC2CC3(CNC(=O)O3)C2)cccc1=O (stereo not drawn) [Compound 494, 2-((1-((1-methyl-6-oxo-1,6-dihydropyridin-2-yl)methyl)-3-oxoisoindolin-2-yl)methyl)-5-oxa-7-azaspiro[3.4]octan-6-one]"
,B (3≥B>2),< 0.5 µM,"Cn1nc(Cl)c(Cl)c1CC1c2ccccc2C(=O)N1C[C@H]1C[C@@]2(CNC(=O)O2)C1 (stereo partly drawn) [Compound 499, (2s,4s)-2-((1-((3,4-dichloro-1-methyl-1H-pyrazol-5-yl)methyl)-3-oxoisoindolin-2-yl)methyl)-5-oxa-7-azaspiro[3.4]octan-6-one]"
,C (2≥C),≥ 5 µM,"Cn1ncc(Cl)c1CC1c2ccccc2C(=O)N1Cc1ccc2ocnc2c1 (stereo not drawn) [Compound 561, 2-(benzo[d]oxazol-5-ylmethyl)-3-((4-chloro-1-methyl-1H-pyrazol-5-yl)methyl)isoindolin-1-one]"
